Measured values: patent US20150231238A1, “OVERCOMING RESISTANCE TO ERBB PATHWAY INHIBITORS” (MERRIMACK PHARMACEUTICALS, INC., priority 2011, published 2015)

Assays:
NCI-N87 tumors = conditions: paclitaxel 20 mpk q7d, trastuzumab 3.5 mpk q3d, MM-111 48 mpk q3d
Method: 7.5×10^6 NCI-N87 cells were implanted subcutaneously in the flanks of female Nu/Nu mice. When tumor volumes reached on average 341 mm^3 (on day 24 after tumor implantation) mice were segregated into 4 groups of 10 mice. […] Tumors were measured twice a week with a digital caliper.

BT474-M3-GFP-HRG tumors = experiment: BT474-M3-GFP-HRG tumor xenograft growth; format: in vivo, mice; conditions: Example 10; MM-111 48 mpk q3d i.p., tamoxifen 5 mg; versus BT474-M3-GFP
Method: 15×10^6 BT474-M3 cells engineered to express GFP (BT474-M3-GFP) or BT474-M3 cells engineered to express GFP and heregulin 1 (BT474-M3-GFP-HRG) were implanted in to the mammary fat pads of estrogen supplemented (0.72 mg 17β-estradiol in a 60-day slow release biodegradable carrier) female NCr/NU-mice (Taconic Farms, Inc). When tumor volumes reached on average 516 mm^3 (BT474-M3-GFP-HRG on day 17 after tumor implantation) or 422 mm^3 (BT474-M3-GFP on day 20 after tumor implantation), mice were segregated into 8 groups of 10-15 mice. Groups received either no treatment (Control), MM-111 (48 mpk q3d i.p. (dose every three days, intraperitoneally)), lapatinib (150 mpk qd p.o. (oral dose daily)), tamoxifen (5 mg free base tamoxifen in a 60-day slow release biodegradable carrier), MM-111 and lapatinib, MM-111 and tamoxifen, lapatinib and tamoxifen or MM-111, lapatinib and tamoxifen. Tumors were measured twice a week with a digital caliber.

[1] = tested on: trastuzumab-resistant BT474-M3 cell spheroids; experiment: Spheroid assay, trastuzumab-resistant cells; format: cell-based
Method: (§1) Cells are cultured for six days. Spheroids are then examined by Nikon microscope and analyzed by MetaMorph® Image Analysis Software (Molecular Devices). The spheroid size from cells cultured in medium containing 10% FBS is set as a control.

BT474-M3 cells = experiment: In vitro breast cancer model, viable cell count after 6 days; format: cell-based
[2] = tested on: BT474-M3 breast cancer xenograft; experiment: BT474-M3 breast cancer xenograft model; format: in vivo, mice; conditions: MM-111 3 mg/kg every 3 days, trastuzumab 1 mg/kg weekly
Method: BT474-M3 cells (2×10^7 cells per mice) are inoculated subcutaneously into Nu/Nu immunodeficient mice, which are implanted with an estrogen pellet (0.72 mg; 60-day release) one day before the experiment. […] Tumors are measured twice a week and the experiment is ended at day 40.

[3] = tested on: BT474-M3 parental (wild-type) cells; experiment: Cell proliferation assay (WST-1), parental cells; format: cell-based; conditions: series dilution, five days
Method: (§2) After five days of treatment, cell viability is measured by WST-1 (Roche, Cat. #5015944001) according to manufacturer's instructions. Cells treated with control (RPMI1640 with 10% FBS) are set as 100%, other treatments are expressed as percentage of the control.

[4] = tested on: trastuzumab-resistant BT474-M3 cells; experiment: Cell proliferation assay (WST-1), trastuzumab-resistant cells; format: cell-based; conditions: series dilution, five days
Method: as §2

[5] = tested on: BT474-M3 wild type cell spheroids; experiment: Spheroid assay, parental cells; format: cell-based; conditions: series dilution, six days
Method: as §1

[6] = tested on: ErbB3, Akt and ERK1/2 signaling in BT474-M3-GFP tumors; experiment: Target and downstream signaling in BT474-M3-GFP tumor lysates (Luminex, western blot); format: in vivo, mice; conditions: end of study tumor lysates
Method: (§3) At the end of study (21 or 25 days after initiation of treatment for BT474-M3-GFP-HRG and BT474-M3-GFP, respectively) tumor samples were collected (24 h after the last MM-111 and 6 h after the last lapatinib dose) and analyzed for target and downstream signaling inhibition. Total and phosphorylated ErbB3 and Akt protein levels were analyzed from tumor lysates by suspension array technology (Luminex) and total and phosphorylated Erk1/2 levels by western blot using PCNA to normalize the results.

[7] = tested on: ErbB3, Akt and ERK1/2 signaling in BT474-M3-GFP-HRG tumors; experiment: Target and downstream signaling in BT474-M3-GFP-HRG tumor lysates (Luminex, western blot); format: in vivo, mice; conditions: for activity in reducing pErbB3 levels with tumoral HRG expression: versus BT474-M3-GFP; for ratio of pERK and totERK levels / ratio of pErbB3 to total ErbB3 / ratio of phospho-Akt to total Akt: in the presence of HRG
Method: as §3

[8] = tested on: pAKT in heregulin-stimulated BT474-M3 cells; experiment: Inhibition of AKT phosphorylation in heregulin-stimulated cells; format: cell-based; conditions: dose range
A2780cis cells = experiment: Cell Titer Glo cell viability after cisplatin, resistant versus sensitive line; format: cell-based, human; conditions: cisplatin 0.01 to 10 μM, 72 hours
Method: The A2780 human ovarian cancer cell line was originally established from tumor tissue from an untreated patient. The A2780cis cell line is cisplatin-resistant (Cat. #93112517, Sigma). […] A2780cis is cross-resistant to melphalan, adriamycin and irradiation.
Cell viability is measured using the Cell Titer Glo assay (Cat. # G7570, Promega) according to the manufacturer's instructions.
Cell viability was measured by the Cell Titer Glo assay which measures metabolically active cells by quantitating ATP.

pAKT in A2780 cells = experiment: pAKT (ser473) western blot in cisplatin-sensitive cells; format: cell-based, human; conditions: cisplatin 0.1 to 10 μM, especially after 24 hours and/or 10 μM
Method: (§4) After incubation cell lysates are prepared and analyzed for pAKT (ser473) (Cat #9271 Cell Signaling Technologies) by western blot.
(§5) The effect of MM-121 on the AKT pathway is determined by treating sensitive (A2780) and resistant (A2780cis) cells with a dose range of MM-121 ((0.01 to 1 μM) in vitro for 1, 4, 24 or 72 hours. After incubation cell lysates are prepared and analyzed for pAKT (ser473) (Cat. #9271 Cell Signaling Technologies) by western blot.
(§6) Cell lysates are analyzed by western blot for pAKT.

pAKT in A2780cis cells = experiment: pAKT (ser473) western blot in cisplatin-resistant cells; format: cell-based, human; conditions: cisplatin 0.1 to 10 μM or MM-121 0.01 to 1 μM, 1, 4, 24 or 72 hours
Method: as §4, §5, §6

[9] = tested on: heregulin-induced phosphorylation of ErbB3, AKT and ERK in ACHN, Du145 and OvCAR8 cells; experiment: ELISA of heregulin-induced pErbB3, pAKT and pERK in cell lysates; format: cell-based
Method: In the first set of experiments, three cancer cell lines (ACHN (renal cell adenocarcinoma, ATCC® #CRL-1611™), Du145 (prostate carcinoma, ATCC® #HTB-81™) and OvCAR 8 (ovarian adenocarcinoma, ATCC® #HTB-161™) cell lines; obtained from the National Cancer Institute's Developmental Therapeutics Program) were seeded at 35,000 cells per well in 96-well plates and grown overnight (maintenance culture medium was RPMI-1640 media supplemented with 10% fetal calf serum, 2 mM L-glutamine, and Pen-Strep; cells were grown in a humidified atmosphere at 5% CO2, 95% air at 37° C.). Cells were synchronized by 20-24 hour serum starvation. The cells were then pre-incubated with 4-fold serial dilutions, ranging from […] to 7.6 pM, of MM-121 for 30 minutes. […]
For ELISA analysis of cell lysates, capture antibodies against ErbB1 (R&D Systems AF231), ErbB2 (R&D Systems, MAB1129), ErbB3 (R&D Systems, MAB 3481) and AKT (Upstate, 05-591 MG) were incubated in 384 well black flat-bottom polystyrene high-binding plates (Corning, 3708) overnight at room temperature. […] All ELISAs were visualized with SuperSignal® ELISA Pico Chemiluminescent Substrate (Pierce, Cat. #37069) and luminescent signal was measured using a luminometer.
Inhibitor IC50 values were calculated by least-squares fitting the dose response data with a sigmoidal curve (GraphPad Prism®, GraphPad Software, Inc., La Jolla, Calif.).

[10] = tested on: EGFR wild-type NSCLC cell lines; experiment: Spheroid assay (CellTiter Glo live cell density) in EGFR wild-type NSCLC cell lines; format: cell-based
Method: The cell lines bear no mutations within their EGFR genes and represent three distinct histological subtypes (see Table X below). Cells harboring Ras mutations are indicated.
Relative live cell densities were then determined using the CellTiter Glo® reagent (Promega).

[11] = in the presence of 5 nM heregulin

## CC(=O)O[C@H]1C(=O)[C@@]2(C)[C@H]([C@H](OC(=O)c3ccccc3)[C@]3(O)C[C@H](OC(=O)[C@H](O)[C@@H](NC(=O)c4ccccc4)c4ccccc4)C(C)=C1C3(C)C)[C@]1(OC(C)=O)CO[C@@H]1C[C@@H]2O [paclitaxel]
NCI-N87 tumors
  tumor growth: only tumor stasis at best

## CC/C(=C(\c1ccccc1)c1ccc(OCCN(C)C)cc1)c1ccccc1 [tamoxifen, reference compound]
BT474-M3-GFP-HRG tumors
  effect of tumoral HRG overexpression on efficacy (tumor volume): improved

## MM-111: bispecific anti-ErbB3, anti-ErbB2 antibody, two scFvs in a Human Serum Albumin conjugate, SEQ ID NO:44
[1]; in the presence of 100 nM gefitinib
  inhibition of spheroid growth in combination with gefitinib: effective at inhibiting cell growth
[1]; in the presence of 300 nM erlotinib
  inhibition of spheroid growth in combination with erlotinib: effective at inhibiting cell growth
[1]; spheroids
  inhibitory activity in trastuzumab-resistant cells compared with wild-type cells: slightly improved
[1]; trastuzumab-resistant cells, series dilution, six days
  inhibition of spheroid growth: significantly reduced spheroid growth
BT474-M3 cells; basal conditions
  inhibition of cell proliferation: 24%
BT474-M3 cells; [11]
  inhibition of cell proliferation: 33%
[2]
  completely regressed tumors: no complete regressions were observed
[3]
  inhibition of cell proliferation: maintained similar inhibitory activity
[4]
  inhibition of cell proliferation: maintained similar inhibitory activity
[5]
  inhibition of spheroid growth: significantly reduced spheroid growth
[6]
  total ErbB3 expression: increased total ErbB3 expression
BT474-M3-GFP-HRG tumors
  effect of tumoral HRG overexpression on efficacy (tumor volume): modestly improved
[7]; end of study tumor lysates
  total ErbB3 expression: increased total ErbB3 expression
  activity in reducing pErbB3 levels with tumoral HRG expression: increased effectiveness
[7]
  ratio of pERK and totERK levels: effective at reducing pERK production in the presence of HRG
  ratio of pErbB3 to total ErbB3: decreased ErbB3 activity even in the presence of HRG
  ratio of phospho-Akt to total Akt: effective at reducing pAkt production in the presence of HRG

## CS(=O)(=O)CCNCc1ccc(-c2ccc3ncnc(Nc4ccc(OCc5cccc(F)c5)c(Cl)c4)c3c2)o1 [lapatinib, reference compound]
BT474-M3 cells; basal conditions
  inhibition of cell proliferation: 50%
BT474-M3 cells; [11]
  inhibition of cell proliferation: 23%
[7]; end of study tumor lysates
  activity in reducing pErbB3 levels with tumoral HRG expression: decreased
[7]
  ratio of pERK and totERK levels: decreased effectiveness
  ratio of pErbB3 to total ErbB3: effectiveness was reduced in the presence of HRG
  ratio of phospho-Akt to total Akt: decreased effectiveness
[8]
  inhibition of AKT phosphorylation: inhibited phosphorylation of AKT

## N.N.[Cl][Pt][Cl] [cisplatin]
A2780cis cells
  cell viability (percentage of media control), A2780cis versus A2780: much greater viability
pAKT in A2780 cells
  pAKT production: decrease in pAKT production
pAKT in A2780cis cells
  pAKT production: no effect on pAKT production

B1: MM-121: fully human anti-ErbB3 antibody, VH and VL sequences SEQ ID NOs: 1 and 2 (antibody, V domains shown)
VH: EVQLLESGGGLVQPGGSLRLSCAASGFTFSHYVMAWVRQAPGKGLEWVSSISSSGGWTLYADSVKGRFTISRDNSKNTLYLQMNSLRAEDTAVYYCTRGLKMATIFDYWGQGTLVTVSS
VL: QSALTQPASVSGSPGQSITISCTGTSSDVGSYNVVSWYQQHPGKAPKLIIYEVSQRPSGVSNRFSGSKSGNTASLTISGLQTEDEADYYCCSYAGSSIFVIFGGGTKVTVL
[9]; MM-121 2 mM to 7.6 pM pre-incubated 30 minutes, 25 nM heregulin 10 minutes, versus HRG control
  inhibition of HRG-induced ErbB3, AKT and ERK phosphorylation: inhibits HRG-induced ErbB3, AKT and ERK phosphorylation
[9]; in most cases
  maximal inhibition of pErbB3, pAKT and pERK relative to unstimulated control: near or below basal signaling levels
[10]; 1 μM MM-121 added to erlotinib 0 to 10 μM, 10 nM HRG, all eight cell lines
  effect on sensitivity of spheroids to erlotinib, dose range: restore sensitivity of the spheroids to erlotinib
[10]; MM-121 1 μM with erlotinib 1 μM, HRG-stimulated cells, all five cell lines
  effect on sensitivity of the cells to erlotinib: greatly improve sensitivity of the cells to erlotinib
pAKT in A2780cis cells
  pAKT production: gradual decrease in pAKT production at all dose levels
